Test results from US12331024B2, “Substituted naphthyl P38alpha mitogen-activated protein kinase inhibitors” (GEN1E LIFESCIENCES INC., priority 2021, dated 2025).

What was measured:
Assay type in all cases: in vivo
[1] = Pharmacokinetics, mouse study: plasma AUCinf of metabolites after dosing Compound (4); settings: female CD-1 mice, single intraperitoneal dose of 1 mg/mouse of Compound (4), metabolite AUCinf relative to Compound (4)
Description: (§1) The pharmacokinetics of Compounds (1)-(4) was determined in mice, rats, and monkeys.
Female CD-1 mice (n=9) received a single intraperitoneal dose of 1 mg/mouse of Compound (4). The dosing formulation was prepared prior to dose, with 2 mg/mL of Compound (4) in 4% DMSO and 96% PBS. Blood samples were collected from the mice at designated timepoints. Following collection, samples were centrifuged (2500 rpm for 10 minutes at 4° C.) and the resulting plasma was recovered and stored frozen (−60° C.).
(§2) Bioanalysis of the plasma samples was performed for Compounds (1)-(4). Mouse plasma samples were extracted by protein precipitation and analyzed by UPLC-MSMS using a Waters UPLC and API 5000® triple quadrupole mass spectrometer (AB Sciex, Toronto, Canada) with a Waters Acquity® UPLC BEH C18 column (50 mm×2.1 mm, 1.7 μm particle size). Acquisition and chromatographic peak integration were performed using Analyst® 1.7 Software. The standard curve regression and quantification of analytes in the samples was performed using the Analyst® Software.
(§3) Pharmacokinetic parameters were calculated based on the plasma concentration data for Compound (4) and the metabolites Compound (1)-(3) by non-compartmental methods using WinNonlin® Software, version 8.1 (Certara®, Inc). The area under the concentration time curve (AUCinf) was calculated for Compounds (1)-(4). The percent AUCinf (% AUCinf) for each metabolite was calculated as the ratio of the AUCinf for each respective metabolite divided by the AUCinf for Compound (4).

[2] = Pharmacokinetics, monkey study: plasma AUCinf of metabolites after dosing Compound (4); settings: male cynomolgus monkeys, single 2 hour intravenous infusion of 5 mg/kg Compound (4), metabolite AUCinf relative to Compound (4)
Description: as §1
Male cynomolgus monkeys (n=3) received a single intravenous infusion over a period of 2 hours at a dose of 5 mg/kg Compound (4) (2.5 mL/kg/hour). The dosing formulation was prepared prior to dose, with 1 mg/mL of Compound (4) in 14% sulphobutylether-β-cyclodextrin (SBECD) in deionized water (w/v). Blood samples were collected from each monkey at designated timepoints. Following collection, the samples were centrifuged (2500 rpm for 10 minutes at 4° C.) and the resulting plasma was recovered and stored frozen (−60° C.).
Bioanalysis of samples was performed for Compounds (1)-(4). The monkey plasma samples were extracted by protein precipitation and analyzed by UPLC-MSMS using a Waters UPLC and API 5000® triple quadrupole mass spectrometer (AB Sciex, Toronto, Canada) with an ACE® Excel® 2 C18 column (50 mm×3.0 mm, 2 μm particle size) or a Waters Acquity® UPLC BEH C18 column (50 mm×2.1 mm, 1.7 μm). Acquisition and chromatographic peak integration were performed using Analyst® Software, version 1.6.3. The standard curve regression and quantification of analytes in the samples was performed using Watson LIMS® Software, version 7.4.1 (Thermo Fisher Scientific, Philadelphia, USA) or the Analyst® Software.
as §3, with “calculated from” for “calculated based on the”, “and its” for “and the”, “metabolites” for “metabolites Compound (1)-(3)”, “AUCinf” for “AUCinf (% AUCinf)”, “each of the metabolites” for “each metabolite”, “AUCinf of” for “AUCinf for”

[3] = Pharmacokinetics, rat study: plasma AUCinf of metabolites after dosing Compound (4); settings: male Sprague-Dawley rats, single intravenous bolus dose of 10 mg/kg Compound (4), metabolite AUCinf relative to Compound (4)
Description: as §1
Male Sprague-Dawley rats (n=3) received a single intravenous bolus dose of 10 mg/kg Compound (4). The dosing formulation was prepared by prior to dosing, with 5 mg/mL of Compound (4) in 14% sulphobutylether-β-cyclodextrin (SBECD) in deionized water (w/v). Blood samples were collected from each rat at designated timepoints. Following collection, the samples were centrifuged (2500 rpm for 10 minutes at approximately 4° C.) and the resulting plasma was recovered and stored frozen (−60° C.).
as §2, with “the” for “the plasma”, “Rat” for “Mouse”
as §3, with “calculated from” for “calculated based on”, “metabolites Compounds” for “metabolites Compound”, “AUCinf” for “AUCinf (% AUCinf)”, “for the metabolites” for “for each metabolite”

Structure (SMILES)	% AUCinf (100×AUCmetabolite/AUCCompound(4)) [1]	% AUCinf (100×AUCmetabolite/AUCCompound(4)) [2]	% AUCinf (100×AUCmetabolite/AUCCompound(4)) [3]
CNc1cccc2c(S(=O)(=O)Nc3ccc(CN4CCOCC4)cc3)cccc12 [Compound (1), 5-(methylamino)-N-(4-(morpholinomethyl)phenyl)naphthalene-1-sulfonamide]	31%	64%	9%
CNc1cccc2c(S(=O)(=O)Nc3ccc(CN4CCOCC4=O)cc3)cccc12 [Compound (2), 5-(methylamino)-N-(4-((3-oxomorpholino)methyl)phenyl)naphthalene-1-sulfonamide]	10%	132%	48%
CN(C)c1cccc2c(S(=O)(=O)Nc3ccc(CN4CCOCC4=O)cc3)cccc12 [Compound (3), 5-(dimethylamino)-N-(4-((3-oxomorpholino)methyl)phenyl)naphthalene-1-sulfonamide]	9%	7%	11%
